Measured values taken from US6790825B2, “Method of using secretin and compositions made therefrom for the treatment of autism and other neurological, behavioral and immunological disorders” (Repligen Corporation, priority 1997, dated 2004).
Entries after “also recorded” stand apart in the source; their conditions may differ. No end group written: not given here.

Key:
[1] = test system: patient, a child with symptoms of autism; experiment: Intravenous secretin infusion in a child with symptoms of autism (Example 1): behavioral and biomedical changes; assay type: in vivo, human
Source text: The present invention will be better understood from the following examples which are given by way of illustration and not by way of limitation. The patient, the same in both examples, is a child with symptoms of autism.
The patient in the present examples developed normally […], with the exception of gastrointestinal problems (i.e., chronic diarrhea and constipation) which began at about six months. At about thirteen months, when whole milk was introduced into their diet, the patient began having reoccurring ear infections. At about fourteen months, the patient appeared to lose the ability to process language, first receptively (at about 14 months) then expressively (at about 16 months). The patient also experienced episodes of “shivers” that appeared to be intermittent seizures.
After consulting with numerous neurologists, pediatricians, child development specialists, audiologists, endocrinologists, allergists, and other medical professionals, no consistent diagnosis had been reached. […] The term autism is used herein for reference purposes only, and this invention is intended to apply to any number of pervasive developmental disorders as well as neurological and immunological disorders.
(§1) When the patient was […], the secretin was administered by way of an infusion as part of an upper gastrointestinal endoscopy. The secretin was used in this diagnostic procedure at the request of the patient's parents, one of which is an inventor of the present invention. The secretin used in this procedure is known as Secretin-Ferring available from Ferring Laboratories, Inc., Suffern, N.Y. (See Appendix A). The secretin was dissolved in a […] solution of sodium chloride and administered in a dosage of 2 clinical units (CU) per kilogram (kg) body weight by intravenous injection over one minute. (I.E. 30 IU IV for approximately 15 kilograms of body weight.)
(§2) The diagnostic tests performed on the patient during this procedure also indicated gastric inflammation. […] The following Table I summarizes the improvements observed in the patient within 3 weeks after the infusion of secretin.
Biomedical changes were also measured in the patient.
At the request of the patient's parents, a second infusion of secretin was performed about 9 months after the first infusion, and a third infusion of secretin was performed about three months after the second infusion.

pancreas = experiment: Pancreatic juice release after secretin infusion during upper gastrointestinal endoscopy (Example 1); assay type: in vivo, human; conditions: immediately after 2 CU/kg i.v. over one minute; usual rate 1-2 ml/min
Experimental: as §1, §2

[2] = test system: patient, a child with symptoms of autism; experiment: Daily transdermal secretin with DMSO in the same patient (Example 2); assay type: in vivo, human
Experimental: At the time of this treatment, the patient was […]. Secretin was administered transdermally using pharmaceutical grade dimethyl sulfoxide (DMSO) (generally 99.9% pure) available from Clinic Service Co., Box 2512, Hemet Calif. 92543. The secretin (Secretin-Ferring) was administered daily in a dosage of about 75 CU over a five day period (i.e., about 15 CU daily). For each treatment, about 4 drops of DMSO were placed onto the skin of the patient, about 15 CU of the crystalline secretin was placed onto the DMSO, and the composition was rubbed into the skin.

abnormal opioid peptides = conditions: autistic children that responded to casein free and gluten free diet; measured before and after infusion; cited from earlier work

Substance: secretin (HSDGTFTSELSRLRDSARLQRLLQGLV-NH2; ends and bridges not checked; UniProt P63298 33-59, looked up) [polypeptide hormone secreted by the mucosa of the duodenum and upper jejunum; used as Secretin-Ferring from Ferring Laboratories]
- SPECT scan: perfusion of the right posterior parietal and right temporal lobes (blood flow in the brain) ([1]; after the infusion): improved; also recorded: increased blood flow in the brain
- Measles, mumps and rubella antibodies ([1]; after the secretin administration in Example 1): reduction of measles, mumps and rubella antibodies
- Rubella titers ([1]; after the treatment, dropped from 5.8 before): 2.3
- Rate of the patient's progress ([1]; at about 5 weeks after the first infusion, behavioral improvements continued): appeared to decrease
- Progress within 3 weeks after the secretin infusion: bowel movements ([1]; before infusion: Abnormal bowel movements, 2 CU/kg i.v.): Normal bowel movements.
- Progress within 3 weeks after the secretin infusion: sleeping problems ([1]; before infusion: Consistent sleeping problems, up numerous times each night, 2 CU/kg i.v.): Has slept through almost every night
- Progress within 3 weeks after the secretin infusion: toilet training ([1]; before infusion: Diapers only, 2 CU/kg i.v.): Completely potty trained.
- Progress within 3 weeks after the secretin infusion: imitation of commands ([1]; before infusion: Did not imitate commands, 2 CU/kg i.v.): Will imitate almost any multi-step
- Progress within 3 weeks after the secretin infusion: spinning episodes ([1]; before infusion: Infrequent (1-2 times/week) spinning episodes, 2 CU/kg i.v.): No spinning episodes.
- Progress within 3 weeks after the secretin infusion: diet preferences ([1]; before infusion: Limited Diet Preferences, 2 CU/kg i.v.): No Change
- Progress within 3 weeks after the secretin infusion: eye contact ([1]; before infusion: Minimal eye contact, 2 CU/kg i.v.): Eye contact 75% of the time.
- Progress within 3 weeks after the secretin infusion: connections between language and objects ([1]; before infusion: No apparent connections made, 2 CU/kg i.v.): Many connections made between
- Progress within 3 weeks after the secretin infusion: flash cards ([1]; before infusion: No flash cards, 2 CU/kg i.v.): 40-50 flash cards.
- Progress within 3 weeks after the secretin infusion: interest in drawing ([1]; before infusion: No interest in drawing, 2 CU/kg i.v.): Wants to draw constantly. Will draw
- Progress within 3 weeks after the secretin infusion: response to request for gestures ([1]; before infusion: No response, 2 CU/kg i.v.): Responds to all kinds of things
- Progress within 3 weeks after the secretin infusion: sentences ([1]; before infusion: No sentences, 2 CU/kg i.v.): Short sentences - such as; “I love you”,
- Progress within 3 weeks after the secretin infusion: words spoken ([1]; before infusion: Two words, 2 CU/kg i.v.): 100's of words - will repeat some
- Progress within 3 weeks after the secretin infusion: interaction with videos ([1]; before infusion: Watch Videos, 2 CU/kg i.v.): Now, gets “involved” interactively
- Serotonin levels in blood ([1]; blood tests after the treatment): rise in serotonin levels; also recorded: increase in serotonin levels
- Progress within 3 weeks after the secretin infusion: water consumption ([1]; no change, before infusion: excessive, approximately 50 cups per day, 2 CU/kg i.v.): change approximately 50 cups per cups per day
- Results of second and third infusions ([1]; second about 9 months after the first, third about three months after the second): achieved the same results
- Chronic abnormal bowel movements ([1]; within days after administration, no change of diet): became normal
- Amount of pancreatic juice released (pancreas): approximately 10 ml/min
- Improvements in the patient on daily transdermal administration ([2]; about 15 CU daily with about 4 drops DMSO rubbed into the skin, compared with infusion): even more dramatic and significant improvements
- Effect of stopping the daily dose ([2]; daily transdermal dose stopped): autistic behavioral symptoms return
- Language progress ([2]; within about 6 months, about 15 CU daily transdermally with DMSO): progressed to spontaneous and conversational language
- Abnormal opioid peptides after the secretin infusion (abnormal opioid peptides): disappeared
